Assay results from patent US20210322520A1, “METHODS OF MODULATING CORTICOSTEROID RESPONSE” (priority 2019, published 2021).
Where two headings read alike, the source gives them in different places. One block for each molecule: values may come before it.

What was measured:
[1] = system: corticosterone levels in rats; assay: Corticosterone levels in rats after RCI or ACTH; type: in vivo, rat
Experimental: Studies were conducted to discover the differences between repository corticotropin injection (RCI) (i.e. Acthar® gel) and synthetic adrenal corticotropin compositions (referred to as ACTH herein) on corticosterone levels in rats.
RCI (10, 40, or 400 IU/kg) or ACTH (0.6, 1.2, or 2.4 mg/kg) was administered to Sprague Dawely rats, plasma samples collected and analyzed for corticosterone.
RCI and ACTH peak corticosterone and area under the curve (AUC) were evaluated.

[2] = Cortisol-equivalent (steroidogenic) exposure of methylprednisolone; type: in vivo, human; details: for plasma free cortisol-equivalent AUEC24SG / plasma total cortisol-equivalent AUEC24SG: 32 mg oral daily, mean; for EmaxSG / AUEC24SG[BA]: mean (SD); for TmaxSG: median (min, max); for AUEC24SG[BA]: baseline-corrected
Experimental: Whole blood samples were drawn from each subject at predefined time points over 24 hours after oral methylprednisolone administration on study Day 1 and Day 4 for determination of plasma total and free methylprednisolone concentrations. All subjects who were in both the PK and PD populations were included in the cortisol-equivalent exposure population.
Because oral methylprednisolone is known to suppress endogenous cortisol production, PD parameters for serum total and plasma free cortisol after administration of methylprednisolone were not calculated. Instead, the cortisol-equivalent (steroidogenic) concentration (CSG) of methylprednisolone was estimated. […] Therefore, a conversion factor of 5 was applied to the methylprednisolone concentration (ConcMPD). The following equation was used to estimate the steroidogenic concentration of methylprednisolone (CSG):
CSG=(5×ConcMPo)+ConcCortisol
CSG was used to estimate the following PD parameters for the steroidogenic concentration of plasma total and free methylprednisolone: maximum observed effect for the steroidogenic concentration (CSG) concentration-time profile (EmaxSG), time of EmaxSG (TmaxSG), and area under the effect curve for the CSG concentration-time profile from time 0 to 24 hours (AUEC24SG). Baseline-corrected AUEC24SG (AUEC24SG[BA]) was calculated by subtracting the baseline (Day-1) cortisol concentrations from the time-matched Day 1 steroidogenic concentration.

[3] = Phase 1 plasma pharmacokinetics in healthy subjects; type: in vivo, human; details: for Cmax / half-life / AUC(0-t): plasma; for RAUC0-24 (accumulation ratio): AUC0-24 Day 4 / Day 1; for time of mean peak plasma concentration: after oral dosing
Experimental: Baseline demographics were collected during the screening period between study Day −28 and Day −3. Subjects remained at the clinic from 2 days before the first dose of study drug (Day-2) until study Day 8.
Serum samples for total cortisol and plasma samples for free cortisol, total methylprednisolone, free methylprednisolone, and ACTH1-24 were analyzed by Syneos Health (Quebec City, Quebec, Canada); plasma samples for N25D porcine ACTH1-39 were analyzed by QPS Netherlands BV (Groningen, Netherlands). Concentrations for all analytes were determined using liquid chromatography-tandem mass spectrometry methods that were validated according to the US FDA Bioanalytical Method Validation Guidance (May 2018). […]
The plasma total and free methylprednisolone were determined using a validated LC-MS/MS method developed by Syneos Health (Quebec City, Quebec, Canada). The LC-MS/MS methods for plasma total and free methylprednisolone were conducted using an Atmospheric Pressure Ionization (API) 5000 mass spectrometer (AB Sciex, Toronto, Canada) with positive electrospray ionization and multiple reaction monitoring (precursor/product ion m/z: 375/161 for methylprednisolone; 381/363 for methylprednisolone-d6, which was included as internal standard). Quantitative analysis was accomplished on an ACE Excel 2 C18-PFP (50×3.0 mm, 2 μm) column. The mobile phases were Milli-Q type water/methanol with ammonium formate and formic acid (in different proportions). The LC was run on isocratic mode followed by a column flush. The calibration range for plasma total methylprednisolone concentration was 0.500 to 500 ng/mL with LLOQ of 0.500 ng/mL. The inter- and intra-run-precision (relative SD) were ≤7%, and 8%, while the intra-run accuracy was 100% to 112%. The calibration range for plasma free cortisol concentration was 200 to […]. The inter- and intra-run-precision (relative SD) were ≤18.5% and 3%, respectively, while the intra-run accuracy was 94% to 101%.
All subjects whose PK profile contained at least 4 consecutive quantifiable concentrations were included in the PK population.
All subjects whose PK profile contained at least 4 consecutive quantifiable plasma concentrations of N25D porcine ACTH1-39, ACTH1-24, or total and free methylprednisolone were in the PK population.
PK parameters were estimated using actual blood collection times by noncompartmental methods using Phoenix® WinNonlin® 8.1. (Certara USA, Inc.). AUC0-24, AUC0-last, and AUC0-inf were calculated using the linear log trapezoidal rule. Kei was calculated using linear regression on the terminal slope of the ln-concentration versus time curve. At least 3 time points (excluding Cmax) and r^2≥0.90 were required to calculate and retain Kel and its associated parameters (t1/2 and AUC0-inf).

[4] = Safety analyses (adverse events), phase 1 study; type: in vivo, human
Experimental: All subjects who received at least one dose of the study drug were in the safety population. Safety was assessed via adverse events (AEs), treatment-emergent AEs (TEAEs; events that occurred after the first dose of study drug and through study completion), serious TEAEs (TESAEs), physical examinations, vital signs, 12-lead electrocardiograms (ECGs), and clinical laboratory test findings collected throughout the study.

[5] = free cortisol (steroidogenic concentration), Day 1
[6] = free cortisol (steroidogenic concentration), Day 4
[7] = total cortisol (steroidogenic concentration), Day 1
[8] = total cortisol (steroidogenic concentration), Day 4
[9] = human, oral, 32 mg, plasma free methylprednisolone, Day 1, mean (SD)
[10] = human, oral, 32 mg, plasma free methylprednisolone, Day 4, mean (SD)

Molecule: ACTH
reduction of corticosterone AUC between ACTH doses ([1]; ACTH 0.6, 1.2, 2.4 mg/kg): no significant reduction
dose dependence of corticosterone peak ([1]; Sprague Dawely rats, plasma): not dose dependent
time of peak corticosterone ([1]; Sprague Dawely rats, plasma, RCI 10, 40, 400 IU/kg, ACTH 0.6, 1.2, 2.4 mg/kg): 8 to 24 h

mean exposure of plasma free methylprednisolone as share of plasma total methylprednisolone ([3]; both days (Day 1 and Day 4)): about 8%
AUC(0-inf) [3, 9]: 106 ng·h/mL
Tmax ([3]; human, oral, 32 mg, plasma total methylprednisolone, Day 1, median (min, max)): 2 h
Cmax [3, 9]: 24.6 ng/mL
half-life [3, 9]: 1.9 h
AUC(0-t) ([3]; human, oral, 32 mg, plasma free methylprednisolone, Day 1, mean (SD), read-out: AUC0-last): 104 ng·h/mL
AUC(0-t) ([3]; human, oral, 32 mg, plasma free methylprednisolone, Day 1, n = 1, read-out: AUC0-24): 176 ng·h/mL
Cmax [3, 10]: 21.9 ng/mL
half-life [3, 10]: 2 h
AUC(0-t) ([3]; human, oral, 32 mg, plasma free methylprednisolone, Day 4, mean (SD), read-out: AUC0-last): 89.5 ng·h/mL
AUC(0-t) ([3]; human, oral, 32 mg, plasma free methylprednisolone, Day 4, n = 1, read-out: AUC0-24): 145 ng·h/mL
half-life ([3]; human, oral, 32 mg, plasma total methylprednisolone, Day 1, mean (SD)): 2.2 h
half-life ([3]; human, oral, 32 mg, plasma total methylprednisolone, Day 4, mean (SD)): 2.4 h
AUC(0-t) ([3]; human, oral, 32 mg, plasma total methylprednisolone, Day 4, mean (SD), read-out: AUC0-24): 1110 ng·h/mL
AUC(0-t) ([3]; human, oral, 32 mg, plasma total methylprednisolone, Day 4, mean (SD), read-out: AUC0-last): 919 ng·h/mL
Cmax ([3]; human, po, 32 mg, plasma total methylprednisolone, 32 mg oral daily, Day 1, mean (SD)): 198 ng/mL
Cmax ([3]; human, po, 32 mg, plasma total methylprednisolone, 32 mg oral daily, Day 4, mean (SD)): 188 ng/mL
AUC(0-t) ([3]; human, po, 32 mg, plasma total methylprednisolone, Day 1, mean (SD), read-out: AUC0-24): 1330 ng·h/mL
AUC(0-t) ([3]; human, po, 32 mg, plasma total methylprednisolone, Day 1, mean (SD), read-out: AUC0-last): 1020 ng·h/mL
AUC(0-inf) ([3]; human, po, 32 mg, plasma total methylprednisolone, Day 1, mean (SD)): 1030 ng·h/mL
RAUC0-24 (accumulation ratio) ([3]; plasma free methylprednisolone, n = 1): 0.8 (NA)
RAUC0-24 (accumulation ratio) ([3]; plasma free methylprednisolone, n = 1, listed as methylprednisolone): 0.8
time of mean peak plasma concentration ([3]; plasma free methylprednisolone): 2 h
RAUC0-24 (accumulation ratio) ([3]; plasma total methylprednisolone, mean (SD)): 0.9 (0.1)
RAUC0-24 (accumulation ratio) ([3]; plasma total methylprednisolone, mean (SD), listed as methylprednisolone): 0.9
time of mean peak plasma concentration ([3]; plasma total methylprednisolone): around 2 hours
Molecule: C[C@H]1C[C@@H]2[C@H]([C@@H](O)C[C@@]3(C)[C@H]2CC[C@]3(O)C(=O)CO)[C@@]2(C)C=CC(=O)C=C12 [Methylprednisolone, methylprednisolone]
plasma free cortisol-equivalent AUEC24SG ([2]; Day 1): 572.0 ng·h/mL
plasma total cortisol-equivalent AUEC24SG ([2]; Day 1): 6480.0 ng·h/mL
plasma free cortisol-equivalent AUEC24SG ([2]; Day 4): 492.0 ng·h/mL
plasma total cortisol-equivalent AUEC24SG ([2]; Day 4): 5440.0 ng·h/mL
EmaxSG [2, 5]: 124.0 (37.2) ng/mL
TmaxSG [2, 5]: 2.0 (1.0, 4.0) h
EmaxSG [2, 6]: 109.0 (26.7) ng/mL
TmaxSG [2, 6]: 2.0 (1.0, 4.0) h
AUEC24SG[BA] ([2]; free cortisol, Day 1): 553.0 (187.0) h*ng/mL
AUEC24SG[BA] ([2]; free cortisol, Day 4): 475.0 (140.0) h*ng/mL
EmaxSG [2, 7]: 1040.0 (251.0) ng/mL
TmaxSG [2, 7]: 2.0 (2.0, 4.0) h
EmaxSG [2, 8]: 959.0 (188.0) ng/mL
TmaxSG [2, 8]: 2.0 (1.0, 4.0) h
AUEC24SG[BA] ([2]; total cortisol, Day 1): 4860.0 (1680.0) h*ng/mL
AUEC24SG[BA] ([2]; total cortisol, Day 4): 4010.0 (1260.0) h*ng/mL
subjects experiencing TESAEs (in words) ([4]; TESAE of pulmonary embolism in the synthetic ACTH1-24 depot group): no subjects
AEs ([4]; n = 16 per group): 17 No.
Any TESAE ([4]; n = 16 per group): 0 No. (%)
Subjects with any TEAE ([4]; n = 16 per group): 10 (62.5) No. (%)
TEAE: Contusion ([4]; n = 16 per group): 1 (6.3) No. (%)
TEAE: Dysuria ([4]; n = 16 per group): 0 No. (%)
TEAE: Headache ([4]; n = 16 per group): 2 (12.6) No. (%)
TEAE: Heart palpitations ([4]; n = 16 per group): 2 (12.5) No. (%)
TEAE: Injection site reaction ([4]; n = 16 per group): 0 No. (%)
TEAE: Insomnia ([4]; n = 16 per group): 0 No. (%)
TEAE: Somnolence ([4]; n = 16 per group): 0 No. (%)
TESAE: Pulmonary embolism ([4]; n = 16 per group): 0 No. (%)
